Results on 14 molecules are retold here after ChEMBL document CHEMBL1201862, “PubChem BioAssay data set” (2004).

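Tested at 5 concentrations; 48 h exposure; 96-well plates; endpoints linearly interpolated, else capped at highest concentration. GI50: concentration for 50% inhibition of growth.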 Calls of active or inactive are those of the source. No stated cut-off is given here; in the data, active = GI50 up to about 1.1 µM and inactive = higher. Where only a bound is given, the exact number is not on record here.

Test systems include SK-OV-3; SF-295; SNB-75; SK-MEL-5; NCI-H23; K562; HOP-92; UACC-257; SF-268; HCC 2998; RPMI-8226; CCRF-CEM; NCI-H460; HCT-15; U-251; OVCAR-5.
Assay in all cases: NCI tumour cell line growth inhibition, 48 h

As for `CCCCCCCCCCCCCCCCCC(=O)NCC(COP(=O)(O)O)OCC` (centres undefined), the GI50 with SK-OV-3 is 34.9 µM (inactive); in the assay on SF-295, 18.5 µM (inactive); in the assay on SNB-75 it was 26.1 µM (inactive); with SK-MEL-5, > 100 µM (inactive); in the assay on NCI-H23, 14.1 µM (inactive); in the assay on K562, > 100 µM (inactive). Besides, the GI50 in the assay with HOP-92 was 13.7 µM (inactive); with UACC-257 it was > 100 µM (inactive); in the assay on SF-268 it was 22.3 µM (inactive); in the assay with HCC 2998, > 100 µM (inactive); with RPMI-8226 it was > 100 µM (inactive); with CCRF-CEM, > 100 µM (inactive).
Take `Cn1c(CBr)nc2c1C(=O)c1nc(CBr)[nH]c(=O)c1C2=O`: the GI50 in the assay with NCI-H460, in the assay with SK-OV-3, with SF-295, with SK-MEL-5, with NCI-H23 and with K562 was > 100 µM (inactive) each time. Moreover, the GI50 with HCT-15 was above 100 µM; with HOP-92, 61.4 µM (inactive); in the assay with SF-268, > 100 µM (inactive); with U-251, > 100 µM (inactive); in the assay on RPMI-8226, 53 µM (inactive); with CCRF-CEM, 40.5 µM (inactive).
As to `CC(c1ccc(Br)cc1)C(C(=O)O)C(=O)O` (centres undefined), the GI50 in the assay with NCI-H460, with SK-OV-3, in the assay on SF-295, in the assay with SNB-75, in the assay with OVCAR-5 and in the assay on SK-MEL-5 was > 100 µM (inactive) each time. In addition, the GI50 in the assay with NCI-H23 is > 100 µM (inactive); with K562 it was > 100 µM (inactive); in the assay with HCT-15 it was above 100 µM; in the assay on UACC-257, > 100 µM (inactive); in the assay on SF-268 it was > 100 µM (inactive); in the assay with HCC 2998 it was > 100 µM (inactive). The GI50 with U-251, in the assay with RPMI-8226 and in the assay on CCRF-CEM was > 100 µM (inactive) throughout.
With `CN1/C(=C/C(=O)c2ccc(Cl)cc2)Nc2ccccc21`, the GI50 in the assay on NCI-H460 was 32.5 µM (inactive); with SF-295, 44.9 µM (inactive); in the assay on SNB-75 it was > 100 µM (inactive); with OVCAR-5, 18.9 µM (inactive); with SK-MEL-5, 25.5 µM (inactive); with NCI-H23 it was 43.7 µM (inactive). The GI50 is 35.9 µM (inactive) with K562; 45.9 µM in the assay with HCT-15; 31.9 µM (inactive) in the assay on UACC-257; 43.9 µM (inactive) in the assay with SF-268; 56 µM (inactive) with HCC 2998; 47.3 µM (inactive) in the assay on U-251. Moreover, the GI50 with RPMI-8226 is 31.8 µM (inactive); in the assay with CCRF-CEM it was 34.8 µM (inactive).
For the molecule `OCC[N+]12CCCN1CCC2`, the GI50 is > 100 µM (inactive) in the assay on NCI-H460; > 100 µM (inactive) in the assay with SK-OV-3; > 100 µM (inactive) in the assay with SF-295; 61.7 µM (inactive) in the assay on SNB-75; > 100 µM (inactive) in the assay on OVCAR-5; > 100 µM (inactive) in the assay on SK-MEL-5. The GI50 was > 100 µM (inactive) with NCI-H23; > 100 µM (inactive) in the assay with K562; above 100 µM with HCT-15; > 100 µM (inactive) with HOP-92; > 100 µM (inactive) in the assay with UACC-257; > 100 µM (inactive) in the assay with SF-268. For the same molecule, the GI50 in the assay with HCC 2998, in the assay on U-251 and in the assay on CCRF-CEM was > 100 µM (inactive) each time.
As to `N#C/C(=C1\SC(/N=N/c2ccc(Cl)cc2)C(=O)N1c1ccccc1)c1nc2ccccc2[nH]1` (centres undefined), the GI50 in the assay on NCI-H460 was 33.7 µM (inactive); with SK-OV-3 it was 15.5 µM (inactive); in the assay with SF-295, 18.5 µM (inactive); with SNB-75, 25.9 µM (inactive); with OVCAR-5, 25.6 µM (inactive); in the assay with SK-MEL-5, 35 µM (inactive). Also, the GI50 was 17.3 µM (inactive) in the assay with NCI-H23; 14.1 µM (inactive) in the assay on K562; 65.8 µM in the assay on HCT-15; 18.8 µM (inactive) with HOP-92; 27.3 µM (inactive) in the assay on UACC-257; > 100 µM (inactive) in the assay with SF-268. Also, the GI50 in the assay on U-251 was 20.3 µM (inactive); in the assay on CCRF-CEM, 16.9 µM (inactive).
As for `O=S(=O)(O)c1ccc(/N=N/c2nc(C(F)(F)F)c(C(F)(F)F)[nH]2)cc1`, the GI50 in the assay on NCI-H460 was 82 µM (inactive); in the assay on SK-OV-3 it was > 100 µM (inactive); in the assay with SF-295, 65.2 µM (inactive); in the assay on SNB-75, 75.9 µM (inactive); in the assay with OVCAR-5 it was 18.1 µM (inactive); with SK-MEL-5, > 100 µM (inactive). The GI50 is 24.2 µM (inactive) in the assay with NCI-H23; 53.8 µM (inactive) in the assay on K562; 31.4 µM in the assay on HCT-15; 16.6 µM (inactive) in the assay with HOP-92; 69.5 µM (inactive) with UACC-257; 56.5 µM (inactive) in the assay on SF-268. Moreover, the GI50 is 41.9 µM (inactive) in the assay with U-251, > 100 µM (inactive) with RPMI-8226 and 45.4 µM (inactive) in the assay on CCRF-CEM.
For `Cc1ccc(S(=O)(=O)NC(=O)C2S(=O)(=O)OCCOS2(=O)=O)cc1`, the GI50 in the assay with SK-OV-3, with SF-295, with SNB-75, with SK-MEL-5, in the assay on NCI-H23 and in the assay on K562 was > 100 µM (inactive) throughout. Also, the GI50 in the assay with HOP-92, in the assay with UACC-257, in the assay on SF-268, with HCC 2998, in the assay on RPMI-8226 and in the assay with CCRF-CEM was > 100 µM (inactive) in each case.
Consider `COc1cc2c(cc1C1=NC(C)(C)CO1)OCO2`, for which the GI50 in the assay with NCI-H460, in the assay on SK-OV-3, in the assay with SF-295, in the assay with SNB-75, in the assay on SK-MEL-5 and in the assay with NCI-H23 was > 100 µM (inactive) in each case. The GI50 was > 100 µM (inactive) in the assay with K562; above 100 µM with HCT-15; > 100 µM (inactive) in the assay with HOP-92; > 100 µM (inactive) with UACC-257; > 100 µM (inactive) in the assay with SF-268; > 100 µM (inactive) in the assay with U-251. Besides, the GI50 in the assay with RPMI-8226 and in the assay with CCRF-CEM was > 100 µM (inactive) in each case.
`CC(C)C(Sc1nc(-c2ccccc2)c(-c2ccccc2)[nH]1)c1n[nH]c(=S)n1-c1ccccc1` (centres undefined): the GI50 was 32.3 µM (inactive) in the assay with NCI-H460; 40.3 µM (inactive) with SK-OV-3; 22.3 µM (inactive) in the assay on SF-295; 66.5 µM (inactive) in the assay with SNB-75; 24.7 µM (inactive) in the assay on OVCAR-5; 17.7 µM (inactive) in the assay with SK-MEL-5. Further, the GI50 in the assay on NCI-H23 was 21.9 µM (inactive); with HCT-15, 50.5 µM; with HOP-92, 22.5 µM (inactive); in the assay on UACC-257, 31.7 µM (inactive); in the assay on SF-268 it was 29.4 µM (inactive); in the assay on HCC 2998, 28.4 µM (inactive). In addition, the GI50 in the assay on U-251 is 22.9 µM (inactive); with RPMI-8226, 21.2 µM (inactive); in the assay with CCRF-CEM it was 23.9 µM (inactive).
Take `CSc1nc(NC2OCC(OC(C)=O)C(OC(C)=O)C2OC(C)=O)c(/N=C\C=N\c2c(NC3OCC(OC(C)=O)C(OC(C)=O)C3OC(C)=O)nc(SC)n(C)c2=O)c(=O)n1C` (centres undefined): the GI50 in the assay on NCI-H460, in the assay on SK-OV-3, in the assay with SF-295, in the assay with SNB-75, in the assay with OVCAR-5 and in the assay with SK-MEL-5 was > 100 µM (inactive) throughout. For the same molecule, the GI50 was > 100 µM (inactive) with NCI-H23; > 100 µM (inactive) with K562; above 100 µM in the assay on HCT-15; > 100 µM (inactive) with HOP-92; > 100 µM (inactive) in the assay with UACC-257; > 100 µM (inactive) in the assay with SF-268. Further, the GI50 in the assay with HCC 2998, in the assay with U-251 and with RPMI-8226 was > 100 µM (inactive) each time.
For `C=CC[P@@]1(=O)O[C@H](c2ccccc2)C(C)N1C(C)C` (some centres undefined), the GI50 with NCI-H460, in the assay with SK-OV-3, in the assay on SF-295, in the assay on SNB-75, with OVCAR-5 and in the assay on SK-MEL-5 was > 100 µM (inactive) throughout. Besides, the GI50 in the assay with NCI-H23 is > 100 µM (inactive); with K562, > 100 µM (inactive); in the assay on HCT-15, above 100 µM; with SF-268 it was > 100 µM (inactive); in the assay with HCC 2998, > 100 µM (inactive); in the assay with U-251, > 100 µM (inactive). The GI50 in the assay with RPMI-8226 and in the assay with CCRF-CEM was > 100 µM (inactive) each time.
Turning to `COc1cc(/C=C/c2ccc(OC(C)=O)cc2)cc(OC)c1OC`, the GI50 is 26.1 µM (inactive) with NCI-H460; 26.6 µM (inactive) with SF-295; 18 µM (inactive) in the assay on OVCAR-5; 18.6 µM (inactive) with SK-MEL-5; 27.1 µM (inactive) in the assay with K562; 27.8 µM in the assay with HCT-15. Further, the GI50 in the assay on HOP-92 is 30 µM (inactive); in the assay with UACC-257 it was 33.4 µM (inactive); in the assay with SF-268, 32 µM (inactive); with U-251, 28 µM (inactive); in the assay with RPMI-8226 it was 19.1 µM (inactive); in the assay on CCRF-CEM, 11.6 µM (inactive).
For the molecule `COc1cc(/C=C\c2ccccc2)cc(OC)c1OC`, the GI50 in the assay on NCI-H460 is 2.55 µM (inactive); in the assay on SF-295, 2.18 µM (inactive); in the assay on SNB-75 it was 2.1 µM (inactive); in the assay with OVCAR-5, 10.3 µM (inactive); with SK-MEL-5 it was 3.08 µM (inactive); in the assay with NCI-H23, 4.13 µM (inactive). In addition, the GI50 with K562 was 0.514 µM (active); in the assay with HCT-15, 2.6 µM; in the assay with HOP-92, 3.53 µM (inactive); with UACC-257, 5.14 µM (inactive); in the assay on SF-268, 6.55 µM (inactive); in the assay with HCC 2998, 11.8 µM (inactive). Further, the GI50 in the assay on U-251 is 4.15 µM (inactive); in the assay with RPMI-8226, 4.18 µM (inactive); in the assay with CCRF-CEM, 2.99 µM (inactive).
